Read-outs that look alike come from different tables or passages of the source. Blank lines part the entries; values can stand above or below the molecule they belong to. Peptide text beside a SMILES is read from it. * marks the point of attachment. Cbz = O=C(OCc1ccccc1)*
Legend:
cathepsin B [1] = biological target: T1, cathepsin B (Homo sapiens, UniProt P07858); experiment: recombinant cathepsin B β-secretase assay (Z-VKM-MCA); type: biochemical; parameters: purchased; details: recombinant human cathepsin B (3.5 ng), Z-V-K-M-MCA substrate (100 μM); read-out: IC50 inhibitory concentration
Protocol: Peptide structures that inhibit cathepsin B β-secretase activity were used to develop small molecule AD drugs. A library of dipeptide aldehydes were screened for an inhibitory effect on the cathepsin B β-secretase activity using recombinant human cathepsin B (3.5 ng) cleavage of the Z-V-K-M-MCA substrate (100 μM).
The recombinant cathepsin B β-secretase assay occurs in a solution (100 μl total volume) consisting of H2O (20 μl), Na-Acetate (50 mM, pH 5.0), NaCl (100 mM), Z-VKM-MCA (100 μM), GSH (10 mM), EDTA (1 mM), and recombinant human cathepsin B (3.5 ng) and 2DMSO (2%). A dipeptide aldehyde was added to such solutions in varying amounts to determine the IC50. The reagents were generally commercially available or, in the case of the dipeptide aldehydes, custom synthesized. The assay was incubated at 37° C. for 45 minutes and the fluorescence was read using a spectrophotometer (365/450 nm excitation/emission). Assays were run in duplicate. Compounds that inhibited cathepsin B by 80-100% (at 10 μM) underwent dose-response testing at […] to 10 μM to determine potency, measured as IC50 values (determined by non-linear regression a analysis using Graphpad Prism). Compounds with IC50 values in the nanomolar range, up to 100 nM, were selected for further study.

[2] = tested on: endogenous β-secretase activity in regulated secretory vesicles; experiment: endogenous β-secretase activity in isolated regulated secretory vesicles, monitored with Z-Val-Lys-Met-MCA; type: biochemical, bovine
Protocol: A high throughput screening (HTS) assay was developed to measure protease activity that cleaves the wild-type β-secretase cleavage site. The substrate Z-Val-Lys-Met-MCA mimics the wild-type β-secretase cleavage site upon cleavage between Met-MCA, which generates fluorescent MCA. The free MCA fluorescence provides sensitive and quantitative measurement of protease activity. This assay provides a rapid (30 minutes) and sensitive assay of activity for cleaving the wild-type β-secretase cleavage site of APP, expressed in majority of the AD population Specifically, the Z-Val-Lys-Met-MCA cleaving assay can be used to detect endogenous β-secretase activity in regulated secretory vesicles.
Isolation of regulated secretory vesicles, also known as chromaffin vesicles, from adrenal medullary tissue (bovine) was conducted by sucrose density gradient purification, as described previously (54-56, 58). Briefly, fresh bovine adrenal medulla (from 40 glands) was gently homogenized by a polytron (Brinkmann) in 200-250 ml ice-cold 0.32 M sucrose. The homogenate was centrifuged at 1500 rpm in a GSA rotor (Sorval centrifuge) for 20 minutes at 4° C. The supernatant was collected and centrifuged at 8000 rpm in a GSA rotor for 20 minutes at 4° C. to obtain a pellet of chromaffin vesicles. The pellet was washed 3 times in 0.32 M sucrose. […]

[3] = tested on: Aβ40 production from endogenous APP in regulated secretory vesicles isolated from chromaffin cells; experiment: Aβ production from endogenous APP in isolated regulated secretory vesicles; type: biochemical, bovine; details: inhibitor 10 μM
Protocol: Regulated secretory vesicles isolated from chromaffin cells naturally produce Aβ from endogenous APP when incubated at 37° C. in vitro for several hours. These vesicles can be used as an in vitro screen for compounds that inhibit Aβ production. […] The effects of cathepsin B inhibitors, CA074 (10 μM, ♦) and CA074Me (10 μM, □), on the production of Aβ40 from endogenous APP in regulated secretory vesicles isolated from chromaffin cells was evaluated in time course studies. […] Each inhibitor was tested in triplicate; values represent x±sem (*statistically significant with p<0.05).
Cathepsin B compounds that were effective inhibitors of endogenous II-secretase activity were tested for inhibition of Aβ peptide production in regulated secretory vesicles. The effect of reversible cathepsin B compounds on production of Aβ40 and Aβ42 in isolated chromaffin vesicles was tested by incubating candidate inhibitors (at 10 μM) with lysed chromaffin vesicles under identical conditions as for the β-secretase assay for 8 hours. […] After incubation, Aβ40 and Aβ42 was measured by ELISA assays, as described for measurement of Aβ peptides in brain extracts. Each candidate inhibitor was assayed in triplicate.

brain Aβ = details: wild-type mice, icv 200 mg/kg/day; cited from earlier work
cathepsin B [4] = biological target: T1, cathepsin B; details: reference (4); read-out: IC50 for cathepsin B inhibition; cited from earlier work
aspartyl protease, BACE1 = aspartyl protease, BACE1 (Homo sapiens, UniProt P56817); experiment: effect on BACE1; type: biochemical
[5] = tested on: brain and synaptosomal Aβ; experiment: guinea pig brain and synaptosome Aβ by ELISA after icv infusion; type: in vivo; details: icv 0.15 mg/kg/day, 30 days
Text: Guinea pig (gp) is a natural, non-transgenic model of human APP processing gpAPP is 98% homologous to human APP, contains the human wild-type β-secretase site, and gpAβ is identical to human Aβ. Brain synaptosome preparations are enriched with neuronal synapses which are the sites at which regulated secretion occurs and are an in vivo measure of regulated secretory secretion CTFβ is an APP fragment that results from p-secretase cleavage of APP and reflects in vivo β-secretase activity. […] E64d was icy administered into gp brains (0.15 mg/kg/day) for 7 or 30 days. […] In FIG. 5b, total synaptosomal Aβ is shown.
CA074Me (0.15 mg/kg/day) was icy infused into gp brains with mini pumps. […] An equal reduction of Aβ40 and Aβ42 is consistent with the inhibitor affecting p-secretase activity
At the end of the treatment, the brains were isolated and extracted with guanidine hydrochloride and Aβ40 and Aβ42 levels were determined using ELISA.
Cathepsin B inhibitors were administered directly into the brain by icy infusion with minipumps in time course studies at different doses. Guinea pigs were infused with compounds using Alzet pumps (2.5 μl/hr, with compounds at 1 mg/ml in saline) for 7 and 30 days, and other times. This initial dose of compound was selected because E64d and CA074Me are effective at this dose. Each treatment group consisted of eight to ten guinea pigs, including the vehicle control group.
At the end of each experiment, animals were sacrificed and half the brain was taken for ELISA measurement of Aβ40 and Aβ42 levels. The other half was isolated for synaptosome preparations for ELISA measurement of Aβ40 and Aβ42 content in nerve terminals. Synaptosomes were prepared by homogenization in isotonic sucrose (320 mM), pH 7.4, 1 mM EDTA, 0.25 mM dithiothreitol, and 30 U/MI RNAse inhibitor. The homogenate was centrifuged at 1000×g for 10 minutes. The supernatant was loaded on a Sucrose-Percoll discontinuous gradient and centrifuged at 32,000×g for 5 minutes (80) Enriched synaptosomes were washed in PBS, and centrifuged at 12,000×g for 4 minutes. The supernatant was removed, and the synaptosome containing pellet was resuspended in 50% OptiPrep (Accurate Chemica. Westbury, N.Y.), loaded on an OptiPrep discontinuous flotation gradient (9, 12.5, 25, and 35%) and centrifuged at 10,000×g for 20 minutes. The synaptosomes were obtained at the […]
For quantitative analysis of Aβ peptides, an enzyme-linked immunosorbent assay (ELISA) was used to measure the levels of total Aβ, Aβtotal, Aβ40 and Aβ42 in the brains and synaptosomes of guinea pigs (Biosource International, Camarillo, Calif.) Aβtotal, Aβ40, Aβ42 was extracted from guinea pig brains or from synaptosomes by guanidine hydrochloride and quantified as described by the manufacturer. This assay extracted the total Aβ peptide from the brain (both soluble and aggregated). Tissue samples were homogenized in 5M guanidine buffer (5M guanidine HCl in 50 mM Tris-Cl, pH 8.3; Sigma-Aldrich, St. Louis, Mo.) at 1:10 w/v dilution. Homogenates were agitated at room temperature for 3-4 hours, then stored at −20° C. The day before running the ELISA, the tissue samples were diluted further 1:10 to provide a final guanidine concentration of 0.5M. These diluted homogenates were spun down at 14,000 rpm for 20 minutes at 4° C. and supernatants used for Aβ determination by ELISA (84-86). Brain and synaptosome extracts were assayed as diluted in 0.5M guanidine. In addition, Aβ40 and Aβ42 were assayed using ELISA using 6E10 as the capture antibody and Rb209 and Rb321 as reporter antibodies, respectively, for Aβ40 and Aβ42 (96).

[6] = biological target: cathepsin B purified from secretory vesicles (Bos taurus, UniProt P07688); experiment: Z-Val-Lys-Met-MCA cleaving activity of purified cathepsin B; details: inhibitor 10 μM

Sequence of aspartyl protease, BACE1 (P56817 46-501): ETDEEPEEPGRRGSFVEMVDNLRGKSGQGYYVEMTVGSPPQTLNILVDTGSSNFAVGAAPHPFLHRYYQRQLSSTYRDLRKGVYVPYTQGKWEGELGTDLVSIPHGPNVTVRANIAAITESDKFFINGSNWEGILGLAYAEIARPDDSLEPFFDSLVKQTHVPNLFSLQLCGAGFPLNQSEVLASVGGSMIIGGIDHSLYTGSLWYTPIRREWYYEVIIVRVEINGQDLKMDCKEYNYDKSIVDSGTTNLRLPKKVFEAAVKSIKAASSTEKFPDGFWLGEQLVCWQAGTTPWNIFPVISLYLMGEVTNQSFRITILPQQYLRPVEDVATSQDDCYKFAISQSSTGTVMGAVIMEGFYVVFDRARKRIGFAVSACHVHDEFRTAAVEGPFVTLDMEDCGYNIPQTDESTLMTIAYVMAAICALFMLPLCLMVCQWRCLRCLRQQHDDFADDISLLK

SMILES: O=CC(CO)NC(=O)C(CCC(=O)NC(c1ccccc1)(c1ccccc1)c1ccccc1)NC(=O)OCc1ccccc1 (stereo not shown) [Z-Q(Trt)S-ald]
IC50 (cathepsin B [1]): 0.058 µM

SMILES: O=CC(CO)NC(=O)C(CSC(=O)OCc1ccccc1)NC(=O)OCc1ccccc1 (stereo not shown) [Z-C(Z)S-ald] (Cbz-Cys(Cbz)-Ser-aldehyde; configuration not given here)
IC50 (cathepsin B [1]): 0.067 µM

SMILES: O=CC(CO)NC(=O)C(Cc1ccc(O)cc1)NC(=O)OCc1ccccc1 (stereo not drawn) [Z-YS-ald] (Cbz-Tyr-Ser-aldehyde; configuration not given here)
IC50 (cathepsin B [1]): 0.037 µM

SMILES: CC(=O)NCCCCC(C=O)NC(=O)C(NC(=O)OCc1ccccc1)C(C)C (stereo not shown) [Z-VK(Ac)-ald]
IC50 (cathepsin B [1]): 0.031 µM

SMILES: CC(C)C[C@H](NC(=O)[C@@H](NC(=O)[C@@H](N)CNC(=O)c1nn[nH]n1)C(C)C)C(=O)N[C@@H](Cc1ccccc1)[C@@H](O)C(=O)Nc1cc(C(=O)O)cc(C(=O)O)c1 [KMI-429]
maximum reduction in brain Aβ (brain Aβ): 30-40%

SMILES: CC(=O)NCCCCC(C=O)NC(=O)C(CSC(=O)OCc1ccccc1)NC(=O)OCc1ccccc1 (stereo not shown) [Z-C(Z)K(Ac)-ald] (Cbz-Cys(Cbz)-Lys(Ac)-aldehyde; configuration not given here)
IC50 (cathepsin B [1]): 0.091 µM

SMILES: CC(C)C(C=O)NC(=O)C(Cc1ccc(O)cc1)NC(=O)OCc1ccccc1 (stereo not drawn) [Z-YV-ald] (Cbz-Tyr-Val-aldehyde; configuration not given here)
IC50 (cathepsin B [1]): 0.065 µM

SMILES: CC(=O)N[C@@H](CC(C)C)C(=O)N[C@H](C(=O)N[C@H](C=O)CCCCN)C(C)C [Ac-LVK-CHO, acetyl-L-leucyl-L-valyl-L-lysinal] (Ac-Leu-Val-Lys-aldehyde)
IC50 (cathepsin B [4]): 0.004 µM
effect on BACE1 (aspartyl protease, BACE1): do not affect
reduction of Aβ40 in brain extracts [5]: about 70%
reduction of Aβ42 in brain extracts [5]: ~60%

More lines, main results first:

inhibition of endogenous β-secretase activity in regulated secretory vesicles ([2]; inhibitor 1 μM): completed inhibited
SMILES: CCCNC(=O)[C@H]1O[C@@H]1C(=O)N[C@H](C(=O)N1CCC[C@H]1C(=O)O)[C@@H](C)CC [CA074]
effect on Aβ production in isolated regulated secretory vesicles [3]: block Aβ production

inhibition of Z-Val-Lys-Met-MCA cleaving activity of cathepsin B [6]: completely inhibited
inhibition of endogenous β-secretase activity in regulated secretory vesicles ([2]; inhibitor 10 μM): completed inhibited
SMILES: CC(C)CCNC(=O)[C@H](CC(C)C)NC(=O)[C@H]1O[C@@H]1C(=O)O [E64c]
effect on Aβ production in isolated regulated secretory vesicles [3]: inhibited

Reference: patent US20100216875A1, “METHODS OF TREATING ALZHEIMER'S DISEASE” (priority 2006, published 2010)
